Measurements: patent US20240208895A1, “BRANCHED-CHAIN AMINO ACID DERIVATIVES TO TREAT DISEASE” (INTRABIO LTD., priority 2021, published 2024)

Assays:
Type in all cases: cell-based
OAT3 (SLC22A8) = target: T1, OAT3 (SLC22A8) (Homo sapiens, UniProt Q8TCC7); assay: OAT3 transporter-mediated cellular uptake (substrate test); details: uptake 5 min, 37° C.
T1 construct: host or cells: HEK-293
T1 sequence (Q8TCC7 1-542): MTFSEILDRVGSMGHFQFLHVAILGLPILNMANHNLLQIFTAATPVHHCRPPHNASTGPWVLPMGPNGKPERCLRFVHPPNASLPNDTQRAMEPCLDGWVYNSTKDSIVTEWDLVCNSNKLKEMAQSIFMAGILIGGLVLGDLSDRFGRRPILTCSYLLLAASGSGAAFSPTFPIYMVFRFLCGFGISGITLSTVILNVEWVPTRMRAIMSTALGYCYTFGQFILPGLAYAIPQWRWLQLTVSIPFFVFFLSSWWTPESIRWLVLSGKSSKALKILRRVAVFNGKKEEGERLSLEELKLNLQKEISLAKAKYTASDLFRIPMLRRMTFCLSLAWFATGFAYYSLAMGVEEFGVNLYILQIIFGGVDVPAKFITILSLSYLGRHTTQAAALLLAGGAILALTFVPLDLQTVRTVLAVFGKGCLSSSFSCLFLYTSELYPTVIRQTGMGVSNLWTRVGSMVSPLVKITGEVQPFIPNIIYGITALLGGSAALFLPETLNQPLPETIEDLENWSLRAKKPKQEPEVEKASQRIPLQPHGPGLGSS
Experimental: (§1) DMSO (0.5%) was the solvent control (SC) and the known inhibitor diclofenac (100 μM) was the positive control (PC). Data were fit to either the Michalis-Menten equation for uptake or the Hill equation for inhibition using the solvent control to define the top and the positive control inhibitor to define the bottom. Symbols represent the mean±SEM, n=3.
(§2) Human OAT1 (SLC22A6) and OAT3 (SLC22A8) overexpressing HEK-293 cells and control cells without transfected transporter (Corning® TransportoCells™) are plated to 24-well plates and cellular uptake of 10 to 100 μg/mL of a Compound of the Disclosure is measured in the absence and presence of transporter inhibitors. Uptake of a Compound of the Disclosure into control cells is measured only without chemical inhibitors. […] Cells are grown in DMEM (Gibco 4196, high glucose, without sodium pyruvate) supplemented with MEM non-essential amino acids and 10% fetal bovine serum. Cells are re-fed with fresh medium after attachment (4-6 hours post-seeding). Cell are plated at a density of 4×10^5/well in 24-well plates coated with poly-D-lysine. Transporter assays are conducted in 400 μL of HBSS supplemented with 10 mM Hepes, pH 7.4 […]
Enzyme kinetic data for uptake and metabolism of a Compound of the Disclosure is analysed by fitting the Michaelis-Menten equation to the data. […]

PepT1 = target: T2, PepT1 (Homo sapiens, UniProt P46059); assay: Inhibition of PepT1 uptake of known substrate Gly-Sar; details: probe substrate Gly-Sar 50 μM
T2 construct: expressed in transfected cells
T2 sequence (P46059 1-708): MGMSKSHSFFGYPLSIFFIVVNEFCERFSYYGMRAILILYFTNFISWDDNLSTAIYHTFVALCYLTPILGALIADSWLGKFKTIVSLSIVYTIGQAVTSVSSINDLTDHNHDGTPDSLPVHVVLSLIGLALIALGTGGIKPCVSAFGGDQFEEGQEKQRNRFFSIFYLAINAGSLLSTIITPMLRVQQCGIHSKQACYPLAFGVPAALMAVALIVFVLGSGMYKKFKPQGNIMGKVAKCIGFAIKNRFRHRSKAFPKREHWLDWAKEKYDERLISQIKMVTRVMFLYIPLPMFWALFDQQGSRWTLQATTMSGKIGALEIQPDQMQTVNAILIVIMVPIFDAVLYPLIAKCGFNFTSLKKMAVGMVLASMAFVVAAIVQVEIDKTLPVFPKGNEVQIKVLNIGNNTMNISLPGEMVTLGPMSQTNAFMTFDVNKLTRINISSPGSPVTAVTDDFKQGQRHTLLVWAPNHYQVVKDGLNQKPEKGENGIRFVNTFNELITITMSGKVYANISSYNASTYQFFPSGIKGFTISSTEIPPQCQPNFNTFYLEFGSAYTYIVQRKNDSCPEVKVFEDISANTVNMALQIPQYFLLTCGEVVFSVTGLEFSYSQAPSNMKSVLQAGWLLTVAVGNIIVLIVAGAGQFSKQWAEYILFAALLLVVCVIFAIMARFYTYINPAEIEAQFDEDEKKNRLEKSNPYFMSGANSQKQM
Experimental: FIG. 2(d) is a line graph showing the concentration-inhibition curves for the inhibition of uptake of known substrate dipeptide Gly-Sar (50 μM) for PepT1. DMSO (0.5%) was the solvent control (SC) and the known inhibitor for the positive control (PC) was losartan (200 μM). Data were fit to either the Michaelis-Menten equation for uptake or the Hill equation for inhibition using the solvent control to define the top and the positive control inhibitor to define the bottom. Symbols represent the mean±SEM, n=3.
The known probe substrates used as positive controls are 3 μM chlorothiazide for OAT1, 2 μM estrone-3-sulfate for OAT3, 10 μM gabapentin for LAT1, 50 μM Gly-Sar for PepT1, 500 μM thiophene-2-glyoxylic acid for MCT1.
The IC50 value for the test item is determined by fitting the Hill equation in the following form:
where A % is the percent activity remaining (the mean cellular uptake observed in the solvent control sample set to 100% and the mean cellular uptake observed in the presence of the positive control inhibitor set to 0%), Top and Bottom are the upper and lower plateau of A %. [I] is the inhibitor concentration and IC50 is the inhibitor concentration where the remaining activity is at the midpoint between the Top and Bottom.

OAT1 (SLC22A6) = target: T3, OAT1 (SLC22A6) (Homo sapiens, UniProt Q4U2R8); assay: Inhibition of OAT1 uptake of known substrate chlorothiazide; details: probe substrate chlorothiazide 3 μM
T3 construct: host or cells: HEK-293
T3 sequence (Q4U2R8 1-563): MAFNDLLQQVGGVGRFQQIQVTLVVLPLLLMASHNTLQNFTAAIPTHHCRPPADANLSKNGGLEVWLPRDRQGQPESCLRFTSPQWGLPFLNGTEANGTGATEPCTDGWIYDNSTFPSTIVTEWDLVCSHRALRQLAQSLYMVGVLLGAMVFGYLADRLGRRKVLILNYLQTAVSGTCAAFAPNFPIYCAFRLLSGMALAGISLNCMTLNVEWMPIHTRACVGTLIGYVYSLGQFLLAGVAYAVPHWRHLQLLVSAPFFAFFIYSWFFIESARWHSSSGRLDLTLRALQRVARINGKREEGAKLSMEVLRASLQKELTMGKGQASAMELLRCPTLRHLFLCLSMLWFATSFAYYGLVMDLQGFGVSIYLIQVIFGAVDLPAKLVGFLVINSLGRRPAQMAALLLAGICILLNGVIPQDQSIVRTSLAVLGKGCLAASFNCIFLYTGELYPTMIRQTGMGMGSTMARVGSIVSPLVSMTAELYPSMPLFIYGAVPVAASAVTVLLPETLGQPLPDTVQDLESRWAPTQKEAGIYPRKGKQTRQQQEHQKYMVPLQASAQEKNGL
Experimental: as §1, §2
The IC50 value for the test item is determined by fitting the Hill equation in the following form: […]

substrate of OAT3 (uptake) (OAT3 (SLC22A8)): substrate
IC50 (PepT1): 0.74 mM
IC50 (OAT1 (SLC22A6)): 6.2 mM
Compound: CC(=O)N[C@@H](CC(C)C)C(=O)O [N-acetyl-L-leucine]
